Data on 1 molecule can be found in publication PMC7912796, “Design, Synthesis, Anticancer Activity, and Solid Lipid Nanoparticle Formulation of Indole- and Benzimidazole-Based Compounds as Pro-Apoptotic Agents Targeting Bcl-2 Protein” (Pharmaceuticals, 2021).

The test system of test [1] is human cytochrome c protein. The experiment in a line: ELISA protein level. The test is classed as cell-based. Conditions: 13 μM, 48 h, MDA-MB-231; control 0.295 ng/mL. The protocol: (§1) Dissection of the compound’s proapoptotic activity was proceeded through gene expression analysis for key genes, controlling apoptosis pathway, as well as protein level determination. Following 8b treatment for 48 h, alterations within MDA-MB-231/breast cancer cell expression of Bcl-2, Bax, caspase-3, -8, and -9 genes, as well as cytochrome c and class-III β-tubulin proteins levels were determined using real-time polymerase chain reaction (RT-PCR) or ELISA technique, respectively. Typically, Bcl-2, Bax, caspases, and cytochrome c proteins contributes within the regulation of apoptotic signaling. Acting as apoptotic activator (Bax) or inhibitor (Bcl-2), the Bcl-2 family proteins play their significant role in apoptosis. The caspases family are cysteine proteases being classified as either executioners; caspase-3, -6, or -7 or initiators; caspase-8 and -9 [36]. Regrading caspase-8, its activation is proceeded through extrinsic death-receptor dependent apoptotic pathway, while, caspase-9 activation is within the event of intrinsic mitochondrial cytochrome c leakage. Additionally, participation of activated caspase-3 is to be essential for caspase-8 activation. […]
Quantikine® Colorimetric Sandwich-ELISA Kit (Cat.#: DCTC0; R&D Systems, Minneapolis, MN, USA) was used for quantitating the targeted human cytochrome c protein through immunoassay protocol. […]
Background: An ELISA detects its analyte on a solid surface through an enzyme-linked reagent.

The test system of another test is class-III β-tubulin. The experiment in a line: ELISA protein level. The conditions noted are these: 48 h. Format: cell-based, human. The protocol: as §1
The test system of test [2] is MDA-MB-231/breast cancer cell line. Kind of test: Apoptosis rate analysis, Annexin-V/FACS. The test is classed as cell-based, human. Conditions: 13 µM, 48 h. The source says: Using flow cytometry, apoptosis rate analysis was proceeded through staining the cell surface-translocating phosphatidylserine with Annexin-V fluorescent conjugate, the calcium-dependent phospholipid binding protein [32]. However, cell cycle analysis was achieved using propidium iodine fluorescent dye to stoichiometrically stain cell DNA contents allowing quantitation and identification of all cell phase rates; G0-G1, S, G2/M, and pre-G1 [33, 34]. […] For identifying the mode of cell death promoted by 8b within MDA-MB-231/breast cancer cells, apoptosis rate analysis was performed following 48 h exposure time. […] Moreover, the average proportion of Annexin-V stained positive cells (total apoptotic cells) elevated from 1.72% within untreated cells to 18.93% in treated ones (p < 0.001). […] The above provided findings are supported by the previous cell cycle analysis confirming the potentiality of 8b as promising anticancer agent.
Apoptotic assay and cell cycle analysis were proceeded according to previous literatures. In brief, cells were planted in 1.0 × 10^6 cells/flask density for 24 h. Subsequently, 8b was added at its IC50 value and incubated for 48 h. Following incubation, MDA-MB-231 cells were trypsinized, harvested, and fixed according to information cited within Annexin® V-FITC Detection Kit (Cat.#: K101-25, BioVision^TM, Milpitas, CA, USA), for quantifying cell’s DNA contents being treated with 8b relative to control sample using propidium iodide stain (Cat.#: ab139418; Abcam^TM, Cambridge, MA, USA). Finally, flow cytometry analysis was done using BD-FACSCalibur® cell analyzer platform (Becton Dickinson-Biosciences-SG^TM, Singapore, Thailand) to estimate which cell cycle phase, the treated cells would be arrested in, as well as computing the percentage of apoptotic cells.

The subject of test [3] is Bax/Bcl-2 gene expression ratio. Kind of test: RT-PCR Bax/Bcl-2 gene expression ratio. The test is classed as cell-based, human. Conditions: 13 μM, 48 h, MDA-MB-231; control 1. The protocol:
as §1, with “[36].” for “[36]. Regrading caspase-8, its activation is proceeded through extrinsic death-receptor dependent apoptotic pathway, while, caspase-9 activation is within the event of intrinsic mitochondrial cytochrome c leakage. Additionally, participation of activated caspase-3 is to be essential for caspase-8 activation.”
Quantitative Real-time PCR was operated on Rotor-Gene Q® PCR system as a reader (Cat.#: 204774; Qiagen^TM, Milan, Italy) via GenElute® RNA extraction/SIGMA PCR kit (Cat.#: REI10; Qiagen^TM, Milan, Italy)^86. […] RNA purity was assessed via Nanodrop® 2000/2000c UV-Vis spectrophotometer (Thermo-Scientific^TM, Bilbao, Spain). […] Obtained results were expressed within Cycle threshold (Ct) values, while relative quantitation of each measured gene was assessed based on ΔΔCt calculations as represented in Table 5 [79].

For test [4], the system named is MDA-MB-231/breast cancer cell line. Kind of test: DNA fragmentation assay. The test is classed as cell-based, human. The conditions noted are these: 13 µM, 48 h and 72 h, agarose gel ladder. Here is the method: In order to delineate the mechanistic aspects of MDA-MB-231/breast cancer cell death mediated by 8b, the DNA fragmentation assay was conducted as being highly characteristic for apoptosis. […] A typical ladder pattern of internucleosomal fragmentation was observed from cell homogenates within both incubation periods (Figure 8). Such findings further confirm the significant activity of 8b as a potent inducer of apoptosis.
DNA isolation was performed through planting MDA-MB-231/breast cells at 0.16x10^6 density, prior to incubation at 37 °C/humidified 5% CO2 overnight. Following 48 h exposure time, cells were harvested, washed and lysed via DNA-extraction buffer at 37 °C overnight. The lysate was incubated after that with 100 μg/mL […] (Cat.#: 9097.1; Carl-Roth^TM, Karlsruhe, Germany) at 37 °C for 2 h, which was followed by three extraction processes using phenol:CHCl3 (1:1 v/v) (Bioflux^TM, Selangor, Malaysia). A consequent re-extraction was done using CHCl3 and then the organic solvent was centrifuged for 5 min at 12,000 rpm within 4 °C conditions. Extracted DNA was precipitated via ice-cold 3 M sodium acetate and absolute ethanol for 1 h at –20 °C, which was then proceeded through centrifugation (15 min—at 12,000 rpm—4 °C). […]

As usually defined, the inhibition is the percentage by which the read-out fell short of the control. For `CCCc1ccc(-c2nn(-c3ccccc3)cc2C=NNC(=O)c2cc3ccccc3[nH]2)cc1` [Compound 8b, N′-((1-phenyl-3-(4-propylphenyl)-1H-pyrazol-4-yl)methylene)-1H-indole-2-carbohydrazide], in test [1], the cytochrome c level is listed as 0.675 ng/mL. Further, in the test on class-III β-tubulin (13 μM, MDA-MB-231, control 0.73 ng/mL), the “class-III β-tubulin level” value is reported as 0.23 ng/mL. This molecule also yielded an inhibition at 13 µM with class-III β-tubulin (Homo sapiens, MDA-MB-231, vs control) of 68.4%. In test [2], the influence on necrosis result is “no influence on the necrosis”. In addition, in test [2] (quadrant assignment assumed), the “early apoptotic cell population (LR quadrant)” value came to 5.09%, the “late apoptotic cell population (UR quadrant)” value amounted to 12.02% and the “necrotic cell population (UL quadrant)” value is given as 1.82%. Besides, the “Annexin-V stained positive cells (total apoptotic cells)” value in test [2] (untreated 1.72%) was found to be 18.93%. The Bax/Bcl expression ratio in test [3] is 21.88. Besides, in test [4], the DNA fragmentation entry is listed as “Significant DNA fragmentation”.
